{
  "source": "ChEMBL document CHEMBL4257479",
  "about": "“Design, synthesis and evaluation of indole derivatives as multifunctional agents against Alzheimer's disease” (Medchemcomm, 2018)",
  "key": {"[1]": {"biological_target": "T1, Amine oxidase [flavin-containing] A (Homo sapiens, UniProt P21397)", "T1 sequence (P21397 whole entry)": "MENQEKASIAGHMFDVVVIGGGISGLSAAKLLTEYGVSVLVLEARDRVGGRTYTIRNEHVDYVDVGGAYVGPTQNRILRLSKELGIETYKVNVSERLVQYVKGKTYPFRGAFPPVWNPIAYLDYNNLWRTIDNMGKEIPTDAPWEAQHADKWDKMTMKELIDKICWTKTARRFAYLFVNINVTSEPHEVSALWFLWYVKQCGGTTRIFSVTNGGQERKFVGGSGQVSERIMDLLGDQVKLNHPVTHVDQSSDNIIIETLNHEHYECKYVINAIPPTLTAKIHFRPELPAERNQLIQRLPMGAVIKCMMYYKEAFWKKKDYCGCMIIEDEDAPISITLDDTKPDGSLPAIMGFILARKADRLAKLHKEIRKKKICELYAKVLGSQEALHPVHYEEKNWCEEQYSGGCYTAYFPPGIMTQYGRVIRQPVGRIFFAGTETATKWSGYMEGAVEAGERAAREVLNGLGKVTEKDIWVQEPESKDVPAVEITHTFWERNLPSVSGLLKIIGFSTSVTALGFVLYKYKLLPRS", "experiment": "Inhibition of human recombinant MAOA using kynuramine as substrate preincubated for 10 mins followed by substrate addition at 10 secs intervals measured after 20 mins by fluorescence assay"}, "[2]": {"biological_target": "T2, Amine oxidase [flavin-containing] B (Homo sapiens, UniProt P27338)", "T2 sequence (P27338 whole entry)": "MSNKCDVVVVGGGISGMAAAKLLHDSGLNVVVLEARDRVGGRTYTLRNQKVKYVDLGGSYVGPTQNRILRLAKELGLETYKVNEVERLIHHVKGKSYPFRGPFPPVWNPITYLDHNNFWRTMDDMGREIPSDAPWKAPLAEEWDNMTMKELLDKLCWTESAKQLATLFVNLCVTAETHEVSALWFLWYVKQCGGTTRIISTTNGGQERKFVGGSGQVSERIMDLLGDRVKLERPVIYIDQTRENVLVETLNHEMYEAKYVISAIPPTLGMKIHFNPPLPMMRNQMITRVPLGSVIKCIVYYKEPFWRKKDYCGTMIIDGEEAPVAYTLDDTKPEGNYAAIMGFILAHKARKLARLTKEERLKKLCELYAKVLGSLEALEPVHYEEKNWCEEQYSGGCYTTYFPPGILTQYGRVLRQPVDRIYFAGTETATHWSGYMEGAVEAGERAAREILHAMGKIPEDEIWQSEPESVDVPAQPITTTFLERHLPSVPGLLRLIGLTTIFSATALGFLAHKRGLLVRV", "description": "Inhibition of human recombinant MAOB using kynuramine as substrate preincubated for 10 mins followed by substrate addition at 10 secs intervals measured after 20 mins by fluorescence assay"}, "[3]": {"organism": "Homo sapiens", "experiment": "Selectivity index, ratio of IC50 for human recombinant MAOA to IC50 for human recombinant MAOB"}, "[4]": {"biological_target": "Acetylcholinesterase (Electrophorus electricus, UniProt O42275)", "sequence (O42275 whole entry)": "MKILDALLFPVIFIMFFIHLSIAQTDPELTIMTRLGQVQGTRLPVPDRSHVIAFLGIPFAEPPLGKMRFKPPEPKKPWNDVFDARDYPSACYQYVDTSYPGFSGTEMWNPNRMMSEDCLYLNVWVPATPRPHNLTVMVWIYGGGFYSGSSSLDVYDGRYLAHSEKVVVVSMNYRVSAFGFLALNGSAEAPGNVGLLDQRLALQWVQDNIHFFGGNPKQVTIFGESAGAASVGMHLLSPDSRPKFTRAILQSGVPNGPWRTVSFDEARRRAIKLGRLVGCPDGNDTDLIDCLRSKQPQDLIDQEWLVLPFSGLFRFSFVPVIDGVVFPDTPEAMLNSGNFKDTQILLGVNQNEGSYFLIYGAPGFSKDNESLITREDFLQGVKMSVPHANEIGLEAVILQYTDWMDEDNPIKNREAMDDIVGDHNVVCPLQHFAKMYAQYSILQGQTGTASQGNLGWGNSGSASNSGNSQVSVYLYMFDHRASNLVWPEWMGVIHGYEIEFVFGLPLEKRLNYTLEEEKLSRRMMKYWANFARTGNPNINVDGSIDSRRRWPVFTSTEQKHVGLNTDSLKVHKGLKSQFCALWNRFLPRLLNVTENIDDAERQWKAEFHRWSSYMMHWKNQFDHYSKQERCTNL", "experiment": "Inhibition of electric eel AChE using acetylthiocholine iodide as substrate preincubated for 10 mins followed by substrate addition and measured after 10 mins by Ellman's method"}, "[5]": {"biological_target": "Cholinesterase (Equus caballus, UniProt P81908)", "sequence (P81908 whole entry)": "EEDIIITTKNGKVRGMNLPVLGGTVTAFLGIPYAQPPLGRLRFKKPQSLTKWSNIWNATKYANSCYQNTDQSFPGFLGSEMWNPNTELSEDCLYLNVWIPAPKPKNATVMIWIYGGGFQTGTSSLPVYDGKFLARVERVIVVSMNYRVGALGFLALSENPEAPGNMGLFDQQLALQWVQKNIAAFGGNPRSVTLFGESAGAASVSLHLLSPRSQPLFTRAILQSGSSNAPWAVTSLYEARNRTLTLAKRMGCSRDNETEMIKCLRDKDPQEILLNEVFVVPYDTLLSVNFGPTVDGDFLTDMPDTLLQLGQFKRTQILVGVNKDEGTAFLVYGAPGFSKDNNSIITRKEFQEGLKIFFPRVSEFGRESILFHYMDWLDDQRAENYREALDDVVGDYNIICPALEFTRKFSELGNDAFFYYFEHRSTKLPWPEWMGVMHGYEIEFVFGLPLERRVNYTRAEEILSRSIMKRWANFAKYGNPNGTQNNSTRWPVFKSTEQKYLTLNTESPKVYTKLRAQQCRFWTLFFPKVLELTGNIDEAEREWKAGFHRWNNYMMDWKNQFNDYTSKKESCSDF", "experiment": "Inhibition of equine serum BuChE using S-butyrylthiocholine iodide as substrate pretreated for 10 mins followed by substrate addition and measured after 10 mins by Ellman's method"}, "[6]": {"experiment": "(§1) Cytotoxicity against human SH-SY5Y cells assessed as reduction in cell viability after 48 hrs by MTT assay", "type": "cell-based", "settings": "SH-SY5Y cells"}, "[7]": {"test_system": "SH-SY5Y", "experiment": "as §1", "type": "cell-based", "settings": "sh-sy5y, 48 h"}, "[8]": {"test_system": "SH-SY5Y", "experiment": "Cytoprotection against MPP+ induced cell death in human SH-SY5Y cells assessed as cell survival at 1 uM preincubated for 2 hrs followed by MPP+ addition and measured after 48 hrs by MTT assay (reference value: 52.78 +/- 7.35%)", "type": "functional", "settings": "read-out: Activity"}, "[9]": {"test_system": "SH-SY5Y", "experiment": "Cytoprotection against MPP+ induced cell death in human SH-SY5Y cells assessed as cell survival at 5 to 10 uM preincubated for 2 hrs followed by MPP+ addition and measured after 48 hrs by MTT assay (reference value: 52.78 +/- 7.35%)", "type": "functional, cell-based"}, "[10]": {"biological_target": "T1, Amine oxidase [flavin-containing] A", "experiment": "Irreversible time dependent inhibition of human recombinant MAOA at 2 times IC50 using kynuramine as substrate preincubated up to 60 mins followed by 45 uM substrate addition by fluorescence assay", "settings": "TDE = time-dependent effect"}, "[11]": {"experiment": "Stability in 0.1 M HCl assessed as compound degradation at 1 mg/ml up to 7 days by UV/vis absorbance assay", "type": "physicochemical", "settings": "buffer, 168 h"}, "[12]": {"experiment": "Stability in 0.1 M NaOH assessed as compound degradation at 1 mg/ml up to 7 days by UV/vis absorbance assay", "type": "physicochemical", "settings": "168 h"}},
  "note": "pIC50: −log10 of the molar value. Active and inactive are the calls of the source. The rule behind the calls is not given here.",
  "data": [
    {"smiles": "CCN(CC)C(=O)Oc1ccc2cc[nH]c2c1", "values": [
      {"measurement": "pIC50", "setting": "[1]", "value": 4.05},
      {"measurement": "pIC50", "setting": "[2]", "value": "< 4.00"},
      {"measurement": "Ratio IC50", "setting": "[3]", "value": "< 0.88"},
      {"measurement": "pIC50", "setting": "[4]", "value": 5.43},
      {"measurement": "pIC50", "setting": "[5]", "value": 5.50}
    ]},
    {"smiles": "CCN(CC)C(=O)Nc1ccc2cc[nH]c2c1", "values": [
      {"measurement": "pIC50", "setting": "[1]", "value": 4.69},
      {"measurement": "pIC50", "setting": "[2]", "value": "< 4.00"},
      {"measurement": "Ratio IC50", "setting": "[3]", "value": "< 0.2"},
      {"measurement": "pIC50", "setting": "[4]", "value": 5.64},
      {"measurement": "pIC50", "setting": "[5]", "value": 5.34},
      {"measurement": "CC50 at 48 h", "setting": "[6]", "value": "> 100", "unit": "µM"},
      {"measurement": "Activity", "setting": "[7]", "value": "Dose-dependent effect"},
      {"measurement": "viability at 1 µM", "setting": "[8]", "value": 84.3, "unit": "%"},
      {"measurement": "Activity", "setting": "[9]", "value": "Active"}
    ]},
    {"smiles": "CCN(CC)C(=O)Oc1ccc2[nH]ccc2c1", "values": [
      {"measurement": "pIC50", "setting": "[1]", "value": 4.88},
      {"measurement": "pIC50", "setting": "[2]", "value": "< 4.00"},
      {"measurement": "Ratio IC50", "setting": "[3]", "value": "< 0.13"},
      {"measurement": "pIC50", "setting": "[4]", "value": 5.56},
      {"measurement": "pIC50", "setting": "[5]", "value": 5.64}
    ]},
    {"smiles": "C#CCn1ccc2ccc(NC(=O)N(CC)CC)cc21", "values": [
      {"measurement": "pIC50", "setting": "[1]", "value": 5.37},
      {"measurement": "pIC50", "setting": "[2]", "value": 5.58},
      {"measurement": "Ratio IC50", "setting": "[3]", "value": 1.65},
      {"measurement": "pIC50", "setting": "[4]", "value": 5.43},
      {"measurement": "pIC50", "setting": "[5]", "value": 5.55},
      {"measurement": "inhibition (INH)", "setting": "[10]", "value": "Tde"},
      {"measurement": "Stability", "setting": "[11]", "value": "Stable"},
      {"measurement": "Stability", "setting": "[12]", "value": "Stable"},
      {"measurement": "CC50 at 48 h", "setting": "[6]", "value": "> 100", "unit": "µM"},
      {"measurement": "Activity", "setting": "[7]", "value": "Dose-dependent effect"},
      {"measurement": "viability at 1 µM", "setting": "[8]", "value": 107, "unit": "%"},
      {"measurement": "Activity", "setting": "[9]", "value": "Active"}
    ]},
    {"smiles": "C#CCn1ccc2ccc(OC(=O)N(CC)CC)cc21", "values": [
      {"measurement": "pIC50", "setting": "[1]", "value": 4.29},
      {"measurement": "pIC50", "setting": "[2]", "value": 5.74},
      {"measurement": "Ratio IC50", "setting": "[3]", "value": 28.1},
      {"measurement": "pIC50", "setting": "[4]", "value": 5.62},
      {"measurement": "pIC50", "setting": "[5]", "value": 5.30},
      {"measurement": "Stability", "setting": "[11]", "value": "Unstable"},
      {"measurement": "Stability", "setting": "[12]", "value": "Unstable"}
    ]},
    {"smiles": "C#CCn1ccc2cc(OC(=O)N(CC)CC)ccc21", "values": [
      {"measurement": "pIC50", "setting": "[1]", "value": 4.00},
      {"measurement": "pIC50", "setting": "[2]", "value": 4.78},
      {"measurement": "Ratio IC50", "setting": "[3]", "value": 6},
      {"measurement": "pIC50", "setting": "[4]", "value": 5.59},
      {"measurement": "pIC50", "setting": "[5]", "value": 5.52}
    ]},
    {"smiles": "C#CCn1ccc2cc(NC(=O)N(CC)CC)ccc21", "values": [
      {"measurement": "pIC50", "setting": "[1]", "value": 4.48},
      {"measurement": "pIC50", "setting": "[2]", "value": 4.54},
      {"measurement": "Ratio IC50", "setting": "[3]", "value": 1.16},
      {"measurement": "pIC50", "setting": "[4]", "value": 5.56},
      {"measurement": "pIC50", "setting": "[5]", "value": 5.40}
    ]},
    {"smiles": "C#CCN[C@@H]1CCc2ccc(OC(=O)N(C)CC)cc21", "note": "[LADOSTIGIL]", "values": [
      {"measurement": "pIC50", "setting": "[1]", "value": "< 4.00"},
      {"measurement": "Ratio IC50", "setting": "[3]", "value": "> 2.69"},
      {"measurement": "pIC50", "setting": "[4]", "value": 4.50},
      {"measurement": "pIC50", "setting": "[5]", "value": 5.70}
    ]},
    {"smiles": "C#CCN(C)CCCOc1ccc(Cl)cc1Cl", "note": "[CLORGILINE]", "values": [
      {"measurement": "inhibition (INH)", "setting": "[10]", "value": "Tde"}
    ]},
    {"smiles": "CCN(CC)C(=O)Nc1ccc2[nH]ccc2c1", "values": [
      {"measurement": "pIC50", "setting": "[1]", "value": "< 4.00"},
      {"measurement": "pIC50", "setting": "[2]", "value": "< 4.00"},
      {"measurement": "pIC50", "setting": "[4]", "value": 5.71},
      {"measurement": "pIC50", "setting": "[5]", "value": 5.46}
    ]}
  ]
}
